Measured values reported in US4211772A, “Benzopyran glycoside acetals and ketals” (Laboratoires Sarget, priority 1977, dated 1980).
Values after ≈ are worked out from the molar mass of the structure shown. Like-named read-outs stand apart in the source and are kept apart here.

Legend:
capillary permeability = experiment: Capillaroprotecting effects: capillary permeability; format: in vivo, conventional male Wistar rats
Description: (§1) Capillaroprotecting effects
The capillary permeability was determined by the method of Charlier et al, Arch. Inter. Physiol.

Aldose Reductase = target: T1, Aldose Reductase (Bos taurus, UniProt P16116); experiment: Inhibition of aldose reductase in vitro (enzyme from beef eye lenses, glyceraldehyde substrate); format: biochemical; conditions: in DMF solution, read-out: percentages of inhibition (aldose reductase)
T1 construct: The enzyme is extracted from beef eye lenses; from tissue; host or cells: beef eye lenses
Source text: Inhibition of Aldose Reductase In Vitro
The reoxidation of NADPH coupled to the enzymatic reaction was followed spectrophotometrically at 340 nm.

Solubilities in water = format: physicochemical; conditions: water; read-out: Solubilities in water
carragenin edema = experiment: Anti-inflammatory activity: carragenin edema test; format: in vivo; conditions: for % inhibition of carragenin edema: borate buffer pH 7, 24 h; for inhibition in vivo at 100 mg/kg / inhibition in vivo at 200 mg/kg / inhibition in vivo at 300 mg/kg / inhibition in vivo at 75 mg/kg / inhibition in vivo at 150 mg/kg: Rattus norvegicus, ip
In short: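 Male Wistar EOPS rats receive 0.1 ml of 5% carragenin suspension in physiological serum into the hind-paw metatarsal muscle, with test substance given i.p. in neutralized solution at the same time. Paw edema is measured by plethysmometry at several times after carragenin and reported as % inhibition against pH-matched physiological serum controls.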

capillary resistance = experiment: Capillaroprotecting effects: capillary resistance; format: in vivo, male OFA EOPS rats
Description: as §1
The capillary resistance was determined by a variant of the method of Charlier et al, Arch. Inter. Physiol.

galactosemic cataract = experiment: Galactosemic cataract in rats; format: in vivo, weaning male EOPS Wistar rats; conditions: 100 mg/kg/d i.p.
Description: GALACTOSEMIC CATARACT IN RATS
The study was conducted using weaning male EOPS Wistar rats having an initial weight of between 45 and 50 g. The animals were fed a high vitamin and high protein regimen containing 20% by weight of galactose. The first signs of cataracts, detected by the ophthalmoscope, appeared beginning with the third day. The animals received daily i.p. doses of the test compound, the treatment being started four days after the commencement of the galactosemic regimen. The evolution of the cataract was followed by the detection of maroon rings visible in the ophthalmoscope. These rings appeared on the external edge of the lens and progressed little by little to its center. Anatomopathological studies of the lenses confirmed that these brown rings correspond well to the characteristic histological lesions of galactosemic cataracts. Photographs taken with the aid of a retinograph facilitated the comparison of the evolution of the lesions.
Statistical calculations according to the .chi.^2 method permit an evaluation of the significance of the results obtained for each of the treatments compared to those for non-treated animals.

Wistar EOPS rat = experiment: Minimum lethal dose by slow i.v. perfusion in the rat; format: in vivo
Description: The minimum lethal dose of compound No. 1 administered by slow i.v. perfusion in the Wistar EOPS rat is in the neighborhood of 15 mg/kg/min. for 30 min.

C[C@@H]1O[C@@H](OC[C@H]2O[C@@H](Oc3c(-c4ccc(O)c(O)c4)oc4cc(O)cc(O)c4c3=O)[C@H](O)[C@@H](O)[C@@H]2O)[C@@H]2OC(C)(C)O[C@@H]2[C@H]1O [No. 1, 3-O-(2,3-O,O-isopropylidene-6-α-L-rhamnosyl-β-D-glucosyl)-quercetin]
percentage reduction of capillary permeability (capillary permeability; 400 mg/kg i.p.): 30% | percentage reduction of capillary permeability (capillary permeability; 800 mg/kg i.p.): 37% | inhibition at 100 µM (Aldose Reductase; 10^-4 mole/l): 82% | inhibition at 10 µM (Aldose Reductase; 10^-5 mole/l): 32% | solubility (Solubilities in water): 7000 µg/mL (≈ 10.8 mM) | % inhibition of carragenin edema (carragenin edema; 75 mg/kg i.p.): 5% | % inhibition of carragenin edema (carragenin edema; 150 mg/kg i.p.): 21% | % inhibition of carragenin edema (carragenin edema; 200 mg/kg i.p.): 0% | inhibition in vivo at 100 mg/kg (carragenin edema; 100 mg/kg i.p., physiological serum, 1/2 h, read-out: % inhibition of carragenin edema): 33% | inhibition in vivo at 200 mg/kg (carragenin edema; 200 mg/kg i.p., physiological serum, 1/2 h, read-out: % inhibition of carragenin edema): 0% | inhibition in vivo at 300 mg/kg (carragenin edema; 300 mg/kg i.p., physiological serum, 1/2 h, read-out: % inhibition of carragenin edema): 30% | inhibition in vivo at 75 mg/kg (carragenin edema; 1 h, pH 7, read-out: % inhibition of carragenin edema, 75 mg/kg i.p., borate buffer pH 7, 1 h): 18% | inhibition in vivo at 75 mg/kg (carragenin edema; 1 h, pH 7, read-out: % inhibition of carragenin edema, 75 mg/kg i.p., borate buffer pH 7, 1 h 1/2): 29% | inhibition in vivo at 150 mg/kg (carragenin edema; 1 h, pH 7, read-out: % inhibition of carragenin edema, 150 mg/kg i.p., borate buffer pH 7, 1 h): 25% | inhibition in vivo at 150 mg/kg (carragenin edema; 1 h, pH 7, read-out: % inhibition of carragenin edema, 150 mg/kg i.p., borate buffer pH 7, 1 h 1/2): 40% | inhibition in vivo at 200 mg/kg (carragenin edema; 1 h, pH 7, read-out: % inhibition of carragenin edema, 200 mg/kg i.p., borate buffer pH 7, 1 h): 16% | inhibition in vivo at 200 mg/kg (carragenin edema; 1 h, pH 7, read-out: % inhibition of carragenin edema, 200 mg/kg i.p., borate buffer pH 7, 1 h 1/2): 37% | inhibition in vivo at 100 mg/kg (carragenin edema; 1 h, read-out: % inhibition of carragenin edema, 100 mg/kg i.p., physiological serum, 1 h): 24% | inhibition in vivo at 200 mg/kg (carragenin edema; 1 h, read-out: % inhibition of carragenin edema, 200 mg/kg i.p., physiological serum, 1 h): 0% | inhibition in vivo at 300 mg/kg (carragenin edema; 1 h, read-out: % inhibition of carragenin edema, 300 mg/kg i.p., physiological serum, 1 h): 37% | inhibition in vivo at 75 mg/kg (carragenin edema; 2 h, pH 7, read-out: % inhibition of carragenin edema, 75 mg/kg i.p., borate buffer pH 7, 2 h): 23% | inhibition in vivo at 150 mg/kg (carragenin edema; 2 h, pH 7, read-out: % inhibition of carragenin edema, 150 mg/kg i.p., borate buffer pH 7, 2 h): 34% | inhibition in vivo at 200 mg/kg (carragenin edema; 2 h, pH 7, read-out: % inhibition of carragenin edema, 200 mg/kg i.p., borate buffer pH 7, 2 h): 38% | inhibition in vivo at 100 mg/kg (carragenin edema; 2 h, read-out: % inhibition of carragenin edema, 100 mg/kg i.p., physiological serum, 2 h): 5% | inhibition in vivo at 200 mg/kg (carragenin edema; 2 h, read-out: % inhibition of carragenin edema, 200 mg/kg i.p., physiological serum, 2 h): 8% | inhibition in vivo at 300 mg/kg (carragenin edema; 2 h, read-out: % inhibition of carragenin edema, 300 mg/kg i.p., physiological serum, 2 h): 8% | inhibition in vivo at 75 mg/kg (carragenin edema; 3 h, pH 7, read-out: % inhibition of carragenin edema, 75 mg/kg i.p., borate buffer pH 7, 3 h): 20% | inhibition in vivo at 150 mg/kg (carragenin edema; 3 h, pH 7, read-out: % inhibition of carragenin edema, 150 mg/kg i.p., borate buffer pH 7, 3 h): 26% | inhibition in vivo at 200 mg/kg (carragenin edema; 3 h, pH 7, read-out: % inhibition of carragenin edema, 200 mg/kg i.p., borate buffer pH 7, 3 h): 30% | inhibition in vivo at 100 mg/kg (carragenin edema; 3 h, read-out: % inhibition of carragenin edema, 100 mg/kg i.p., physiological serum, 3 h): 7% | inhibition in vivo at 200 mg/kg (carragenin edema; 3 h, read-out: % inhibition of carragenin edema, 200 mg/kg i.p., physiological serum, 3 h): 8% | inhibition in vivo at 300 mg/kg (carragenin edema; 3 h, read-out: % inhibition of carragenin edema, 300 mg/kg i.p., physiological serum, 3 h): 16% | inhibition in vivo at 75 mg/kg (carragenin edema; 4 h, pH 7, read-out: % inhibition of carragenin edema, 75 mg/kg i.p., borate buffer pH 7, 4 h): 14% | inhibition in vivo at 150 mg/kg (carragenin edema; 4 h, pH 7, read-out: % inhibition of carragenin edema, 150 mg/kg i.p., borate buffer pH 7, 4 h): 19% | inhibition in vivo at 200 mg/kg (carragenin edema; 4 h, pH 7, read-out: % inhibition of carragenin edema, 200 mg/kg i.p., borate buffer pH 7, 4 h): 21% | inhibition in vivo at 100 mg/kg (carragenin edema; 4 h, read-out: % inhibition of carragenin edema, 100 mg/kg i.p., physiological serum, 4 h): 16% | inhibition in vivo at 200 mg/kg (carragenin edema; 4 h, read-out: % inhibition of carragenin edema, 200 mg/kg i.p., physiological serum, 4 h): 12% | inhibition in vivo at 300 mg/kg (carragenin edema; 4 h, read-out: % inhibition of carragenin edema, 300 mg/kg i.p., physiological serum, 4 h): 27% | inhibition in vivo at 75 mg/kg (carragenin edema; 5 h, pH 7, read-out: % inhibition of carragenin edema, 75 mg/kg i.p., borate buffer pH 7, 5 h): 25% | inhibition in vivo at 150 mg/kg (carragenin edema; 5 h, pH 7, read-out: % inhibition of carragenin edema, 150 mg/kg i.p., borate buffer pH 7, 5 h): 27% | inhibition in vivo at 200 mg/kg (carragenin edema; 5 h, pH 7, read-out: % inhibition of carragenin edema, 200 mg/kg i.p., borate buffer pH 7, 5 h): 30% | inhibition in vivo at 100 mg/kg (carragenin edema; 5 h, read-out: % inhibition of carragenin edema, 100 mg/kg i.p., physiological serum, 5 h): 20% | inhibition in vivo at 200 mg/kg (carragenin edema; 5 h, read-out: % inhibition of carragenin edema, 200 mg/kg i.p., physiological serum, 5 h): 15% | inhibition in vivo at 300 mg/kg (carragenin edema; 5 h, read-out: % inhibition of carragenin edema, 300 mg/kg i.p., physiological serum, 5 h): 30% | inhibition in vivo at 75 mg/kg (carragenin edema; 6 h, pH 7, read-out: % inhibition of carragenin edema, 75 mg/kg i.p., borate buffer pH 7, 6 h): 17% | inhibition in vivo at 150 mg/kg (carragenin edema; 6 h, pH 7, read-out: % inhibition of carragenin edema, 150 mg/kg i.p., borate buffer pH 7, 6 h): 28% | inhibition in vivo at 200 mg/kg (carragenin edema; 6 h, pH 7, read-out: % inhibition of carragenin edema, 200 mg/kg i.p., borate buffer pH 7, 6 h): 18% | inhibition in vivo at 100 mg/kg (carragenin edema; 6 h, read-out: % inhibition of carragenin edema, 100 mg/kg i.p., physiological serum, 6 h): 7% | inhibition in vivo at 200 mg/kg (carragenin edema; 6 h, read-out: % inhibition of carragenin edema, 200 mg/kg i.p., physiological serum, 6 h): 9% | inhibition in vivo at 300 mg/kg (carragenin edema; 6 h, read-out: % inhibition of carragenin edema, 300 mg/kg i.p., physiological serum, 6 h): 27% | inhibition in vivo at 75 mg/kg (carragenin edema; read-out: % inhibition of carragenin edema, 75 mg/kg i.p., borate buffer pH 7, 1/2 h): 18% | inhibition in vivo at 150 mg/kg (carragenin edema; read-out: % inhibition of carragenin edema, 150 mg/kg i.p., borate buffer pH 7, 1/2 h): 15% | inhibition in vivo at 200 mg/kg (carragenin edema; read-out: % inhibition of carragenin edema, 200 mg/kg i.p., borate buffer pH 7, 1/2 h): 9% | % of animals for which the effect is ≥ 25 u cm Hg/h (capillary resistance; 100 mg/kg i.p.): 50% | capillary resistance, effect observed (capillary resistance; 100 mg/kg i.p.): 21.5 ± 4.6 u cm Hg/h | % of animals for which the effect is ≥ 25 u cm Hg/h (capillary resistance; 200 mg/kg i.p.): 90% | capillary resistance, effect observed (capillary resistance; 200 mg/kg i.p.): 41.25 ± 15.3 u cm Hg/h | percentage of animals which have not yet shown the appearance of cataracts (galactosemic cataract; day 0): 100% | percentage of animals which have not yet shown the appearance of cataracts (galactosemic cataract; day 1): 100% | percentage of animals which have not yet shown the appearance of cataracts (galactosemic cataract; day 2): 87.5% | percentage of animals which have not yet shown the appearance of cataracts (galactosemic cataract; day 3): 81% | percentage of animals which have not yet shown the appearance of cataracts (galactosemic cataract; day 4): 50% | significance compared to non-treated animals (chi^2) (galactosemic cataract; day 4): S | percentage of animals which have not yet shown the appearance of cataracts (galactosemic cataract; day 5): 37.5% | significance compared to non-treated animals (chi^2) (galactosemic cataract; day 5): S | percentage of animals which have not yet shown the appearance of cataracts (galactosemic cataract; day 6): 37.5% | significance compared to non-treated animals (chi^2) (galactosemic cataract; day 6): S | percentage of animals which have not yet shown the appearance of cataracts (galactosemic cataract; day 10): 37.5% | significance compared to non-treated animals (chi^2) (galactosemic cataract; day 10): S | percentage of animals which have not yet shown the appearance of cataracts (galactosemic cataract; day 12): 28% | significance compared to non-treated animals (chi^2) (galactosemic cataract; day 12): S | percentage of animals which have not yet shown the appearance of cataracts (galactosemic cataract; day 16): 19% | significance compared to non-treated animals (chi^2) (galactosemic cataract; day 16): S | percentage of animals which have not yet shown the appearance of cataracts (galactosemic cataract; day -4): 100% | arterial pressure and cardiac frequency, time of maximum (Wistar EOPS rat): attain their maximum values at the twelfth minute of the perfusion | cause of death (Wistar EOPS rat): death occurs by respiratory arrest | hemodynamic effects (Wistar EOPS rat): brief, low intensity hypotension is observed accompanied by bradycardia | minimum lethal dose (Wistar EOPS rat; for 30 min): ~15 mg/kg/min
